Experimental data taken from PubChem BioAssay (NCI).
Where “and” joins values, the source holds several entries; their conditions need not be identical. Identical values can stand only once.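 Test compounds were applied to cells in 96-well plates for 48 hours at 5 doses. Here, GI50 denotes the concentration required for 50% inhibition of growth. The concentration for full growth arrest is given as TGI.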 Where a SMILES comes first, the peptide text is derived from it. The star is where a group is joined. Cbz = O=C(OCc1ccccc1)*; CH2Cl = ClC*

How the values were obtained:
Experiment in all cases: NCI anticancer screen, dose series, 48 h
NCI-H522 lung = test system: NCI-H522 lung
HCT-15 colon = test system: HCT-15 colon
MOLT-4 leukemia = test system: MOLT-4 leukemia
UACC-62 melanoma = test system: UACC-62 melanoma
NCI/ADR-RES ovarian = test system: NCI/ADR-RES ovarian
OVCAR-3 ovarian = test system: OVCAR-3 ovarian
MCF7 breast = test system: MCF7 breast
OVCAR-5 ovarian = test system: OVCAR-5 ovarian
U251 CNS = test system: U251 CNS
HT29 colon = test system: HT29 colon

| Structure (SMILES) | GI50 (NCI-H522 lung) [nM] | TGI (NCI-H522 lung) | GI50 (HCT-15 colon) [nM] | TGI (HCT-15 colon) | GI50 (MOLT-4 leukemia) [nM] | TGI (MOLT-4 leukemia) [µM] | GI50 (UACC-62 melanoma) [nM] | TGI (UACC-62 melanoma) [µM] | GI50 (NCI/ADR-RES ovarian) [µM] | TGI (NCI/ADR-RES ovarian) [µM] | GI50 (OVCAR-3 ovarian) [nM] | TGI (OVCAR-3 ovarian) [µM] | GI50 (MCF7 breast) [nM] | TGI (MCF7 breast) | GI50 (OVCAR-5 ovarian) [µM] | TGI (OVCAR-5 ovarian) [µM] | GI50 (U251 CNS) | TGI (U251 CNS) | GI50 (HT29 colon) [nM] | TGI (HT29 colon) [µM] |
| --- | --- | --- | --- | --- | --- | --- | --- | --- | --- | --- | --- | --- | --- | --- | --- | --- | --- | --- | --- | --- |
| Cc1nn(-c2ccc(Cl)cc2)c2nc3c(nc12)C(=O)c1ccccc1-3 | > 100000 | > 100 µM | > 100000 | > 100 µM | > 100000 | > 100 | > 100000 | > 100 | > 100 | > 100 | > 100000 | > 100 | 51900 | > 100 µM | > 100 | > 100 | > 100 µM | > 100 µM | > 100000 | > 100 |
| Nc1nc(/C=C\c2ccc([N+](=O)[O-])s2)nc(N2CCCC2)n1 | 2550 | 8.67 µM | – | – | 2160 | 12.1 | 1430 | 8.67 | 4.51 | 23.2 | 3490 | 12.2 | 3160 | 16.1 µM | 15.7 | 30.7 | – | – | 2970 | 14.8 |
| CNCC#Cc1c(F)ccc2c1/C(=C/c1[nH]ccc1OC)C(=O)N2 | 299 | 1.17 µM | 86.6 | 2.78 µM | 132 | 2.26 | 249 | 0.815 | 0.363 | 3.27 | 516 | 2.74 | 210 | 3.04 µM | 0.323 | 3.16 | 0.121 µM | 2.75 µM | 133 | 1.82 |
| C#C[C@]1(O)CCC2C3CCc4cc(O)ccc4C3CC[C@@]21C (stereo partly drawn) | 3470 | 20.5 µM | 4900 | 73 µM | 3650 | 26.3 | 4120 | 22.8 | 3.14 | 25.4 | 3140 | 8.43 | 9510 | 25.2 µM | 17.3 | > 100 | 4.09 µM | 17.5 µM | 3650 | 18.6 |
| COc1cc2c(c(OC)c1OC)-c1ccc(SC)c(=O)cc1C(NC=O)CC2 (stereo not drawn) | – | < 0.01 µM | – | > 37.4 µM | – | 48.9 | – | > 100 | – | 0.273 | – | 2.33 | – | 42 µM | – | > 94.3 | – | 5.68 µM | – | 1.1 |
| Cc1ccc(NC(=O)CC2CC2)cc1-c1ccc(C(=O)NCC2CC2)cc1 | > 25000 | > 25 µM | > 25000 | > 25 µM | > 25000 | > 25 | > 21700 | > 25 | > 25 | > 25 | > 25000 | > 25 | > 25000 | > 25 µM | > 25 | > 25 | > 25 µM | > 25 µM | > 25000 | > 25 |
| CS(=O)(=O)CCNCc1nc(-c2ccc3ncnc(Nc4ccc(OCc5cccc(C(F)(F)F)c5)cc4)c3c2)cs1 | 9130 | > 25 µM | > 25000 | > 25 µM | > 25000 | > 25 | > 25000 | > 25 | > 25 | > 25 | > 17300 | > 25 | > 17500 | > 25 µM | > 25 | > 25 | 5.9 µM | > 22.6 µM | > 17600 | > 25 |
| COc1cc(-n2cc(-c3ccc(F)cc3)[nH]c2=O)cc(OC)c1OC | > 100000 | > 100 µM | > 100000 | > 100 µM | > 100000 | > 100 | > 100000 | > 100 | > 100 | > 100 | > 100000 | > 100 | > 100000 | > 100 µM | > 100 | > 100 | 71.6 µM | > 100 µM | > 100000 | > 100 |
| COc1cc(F)ccc1-c1ncnc(Nc2cccc(CS(C)(=N)=O)c2)n1 (stereo not drawn) | 1600 | 6.34 µM | 495 | > 100 µM | 2010 | 7.06 | 361 | 3.4 | 3.19 | > 100 | 450 | > 100 | 414 | > 100 µM | 0.827 | > 100 | 0.779 µM | > 100 µM | 642 | 6.39 |
| COc1ccc2c(c1)C(=O)c1c-2c(N2CCN(C(=O)CNCCNCCO)CC2)nc2ccccc12 | 1810 | 4.08 µM | 7810 | 22.4 µM | 2190 | 6.61 | 2820 | 8.64 | 15 | 33.1 | 11700 | 31.2 | 1750 | 3.5 µM | 15.4 | 31 | 4.08 µM | 16.3 µM | 1610 | 3.05 |
| NCCNc1c2c(c(NCCN)c3[nH]ccc13)C(=O)c1ccccc1C2=O | 1900 | > 100 µM | 845 | 14.8 µM | < 10 | 0.0437 | 84.2 | 0.372 | 13.3 | 29.6 | < 48.9 | 0.251 | 29 | 0.323 µM | 0.279 | 0.96 | – | 0.842 µM | 52.7 | 0.634 |
| COc1cc2c3c(n(C)c(=O)c2cc1OC)-c1cc2c(cc1/C3=C\CN)OCO2 | 835 | > 43.5 µM | 778 | 19.8 µM | < 20.8 | 0.433 | 73.1 | – | 1.21 | 68.7 | 1580 | 14.8 | 236 | > 31.6 µM | 2.16 | > 35.7 | 0.0395 µM | 3.31 µM | 192 | 24.8 |
| COc1cc(Cn2c(-c3ccccc3)c(Cl)c3c2-c2oncc2CC3)cc(OC)c1 | 2150 | 10.1 µM | 4840 | > 100 µM | 3430 | > 100 | 3840 | 31.3 | 2.58 | 8.96 | 4630 | 22.9 | 3810 | > 100 µM | 47 | > 100 | 6.2 µM | > 100 µM | 3710 | > 100 |
| COc1cc2c(cc1OCCCNC(=O)c1cccc3c(=O)c4ccccc4[nH]c13)N=C[C@@H]1CCCN1C2=O | – | > 33.6 µM | 114 | > 100 µM | 4030 | > 100 | < 10 | < 0.01 | 0.379 | > 26.4 | – | 6.64 | < 24.2 | 13.8 µM | < 0.01 | 30.6 | < 0.01 µM | > 48.8 µM | – | > 56.3 |
| [Cl][Hg][c]1cc[c]([Hg][Cl])o1 | 367 | 1.69 µM | 2050 | 6.06 µM | 1580 | 8.59 | 3460 | 16.2 | 8.25 | > 100 | – | – | 529 | 8.84 µM | 7.17 | 23.9 | 0.737 µM | 2.46 µM | 2990 | 9.88 |
| O=C(Nc1ccncc1)C(=O)c1cn(S(=O)(=O)c2ccc(F)cc2)c2ccccc12 | 823 | > 100 µM | 1410 | > 100 µM | 5220 | > 100 | 3400 | > 100 | 1.76 | > 100 | 1760 | 7.6 | 779 | > 100 µM | 7.96 | > 100 | 3.48 µM | > 100 µM | 1880 | > 100 |
| CCSc1ncnc2c1ncn2C1OC(CO)C(O)C1O (stereo not drawn) | 648 | > 100 µM | 274 | > 100 µM | 173 | > 87.1 | 1480 | > 100 | 0.432 | > 57.1 | 312 | > 79.7 | 288 | > 91.2 µM | 0.65 | > 100 | 6.39 µM | > 100 µM | 229 | > 100 |
| COc1c(OC[C@H](O)CN2CCOCC2)ccc2c3n(c(=NC(=O)c4cccnc4C)nc12)CCN3 | > 50000 | > 50 µM | 1620 | > 50 µM | 305 | > 50 | 330 | > 50 | > 50 | > 50 | 432 | > 50 | 75.1 | > 50 µM | 0.171 | > 50 | 2.58 µM | > 50 µM | 217 | > 50 |
| CC(C)CC(NC(=O)OCc1ccccc1)C(=O)NC(Cc1ccccc1)C(=O)CCl (stereo not drawn) (Cbz-Leu-Phe-CH2Cl; configuration not given here) | – | 2.74 µM | – | 3.34 µM | – | 4.33 | – | 7.82 | – | 11.4 | – | 8.26 | – | 7.85 µM | – | 15.3 | – | 22 µM | – | 7.54 |
| C=C(Cl)C(Br)(CCl)CCC(Br)C(C)(C)Cl (stereo not drawn) | 2820 | 9.26 µM and 6.43 µM | 2010 | 9.57 µM and 3.94 µM | – | 8.82 | 2170 | 6.83 | 4.39 | 10.9 | 2010 | 3.73 | 4080 | 7.13 µM and 15.6 µM | – | 19.4 | 2.74 µM | 6.93 µM | – | 4.23 |
| CC(=O)OC12C=CC(=O)N1c1ccccc1C(=O)O2 (stereo not drawn) | – | > 100 µM | – | > 100 µM | – | > 100 | – | > 100 | > 100 | > 100 | – | > 100 | > 100000 | > 100 µM | – | > 100 | – | > 100 µM | – | > 100 |
| O=C1/C(=C/c2cccc(Cl)c2Cl)N=C(c2ccccc2)N1C1CC1 | 19800 | > 50 µM | 12300 | 39 µM | 19200 | > 50 | 9200 | 19.5 | 11.8 | 31.1 | 22100 | > 50 | 7980 | 19.2 µM | 10.4 | 21.1 | 12.6 µM | 34.7 µM | 18200 | > 50 |
| O=C1C=CC(=O)c2cc3cc(CBr)ccc3cc21 | 4330 | > 25.8 µM | 5950 | 17.3 µM | – | – | 5610 | 15.6 | 6.78 | 32.4 | 7430 | > 21.8 | 9730 | > 100 µM | 9.96 | 33.6 | 14.4 µM | 36.2 µM | 2620 | > 100 |
| Nc1c(C(=O)Nc2ccncc2)sc2nc3c(cc12)CCCCCCCC3 | – | – | 962 | 1.8 µM | 1220 | 2.76 | 885 | 1.67 | 0.921 | 1.78 | 946 | 1.68 | 886 | 1.75 µM | 0.897 | 1.64 | 0.933 µM | 1.73 µM | 969 | 1.79 |
| CN(C)CC[PH+](c1ccccc1)c1ccccc1.CN(C)CC[PH+](c1ccccc1)c1ccccc1.[Cl-].[Pd+2] | 73600 | > 100 µM | > 100000 | > 100 µM | – | – | > 100000 | > 100 | > 100 | > 100 | > 100000 | > 100 | > 100000 | > 100 µM | > 100 | > 100 | > 100 µM | > 100 µM | > 100000 | > 100 |
| COc1cc(NCc2ccc3nc(N)nc(N)c3c2C)cc(OC)c1OC (tested in a mixture with another compound) | – | – | 0.451 | 51.7 µM | – | 46.7 | – | – | – | 229 | – | 77.8 | – | 28.7 µM | 0.0287 | 35.9 | 0.00227 µM and 0.016 µM | 88.5 µM and 48.7 µM | – | 41.9 |
